Assay results as given in patent US20260223850A1, “SUBSTITUTED PYRROLIDONE COMPOUND, PREPARATION METHOD THEREFOR, COMPOSITION AND APPLICATION THEREOF” (QINGDAO KINGAGROOT CHEMICAL COMPOUND CO., LTD., priority 2023, published 2026).

Experiments:
Assay type in all cases: in vivo
Echinochloa crusgalli = experiment: Seedling stage sealing experiment for water-seeding; details: 120 g a.i./ha, 15 days, fresh weight control rate
From the text: (§1) The activity level criteria for plant damage (i.e., growth control rate) are as follows: • Level 9: completely dead; • Level 8: growth control rate greater than or equal to 90% and less than 100%; • Level 7: growth control rate greater than or equal to 80% and less than 90%; • Level 6: growth control rate greater than or equal to 70% and less than 80%; • Level 5: growth control rate greater than or equal to 50% and less than 70%; • Level 4: growth control rate greater than or equal to 30% and less than 50%; • Level 3: growth control rate greater than or equal to 20% and less than 30%; • Level 2: growth control rate greater than or equal to 10% and less than 20%; • Level 1: growth control rate less than 10%; • Level 0: no effect.
(§2) The above growth control rates are fresh weight control rates.
(§3) Echinochloa phyllopogon, Digitaria sanguinalis, Huaidao (rice cultivar), etc. were broadcasted on the surface of nutrition bowls filled with soil and fully covered by soil. The foregoing well-prepared nutrition bowls were then placed in a cultivation box with water filled to a suitable height to keep the soil in the nutrition bowls moist. A test compound of the present invention was individually dissolved with acetone, then diluted into solution of a certain concentration using a certain amount of water, and sprayed using a spray tower. The plants were placed on a greenhouse seedbed and cultured for 15 days, and the experimental results were then collected. The compound was applied at 120, 60, 30 and 15 g a.i./ha in triplicate, and the results were averaged.

Echinochloa phyllopogon = experiment: as above; details: 120 g a.i./ha, 15 days, fresh weight control rate
From the text: as §1, §2, §3

Huaidao (rice cultivar) = experiment: Seedling stage sealing experiment for water-seeding (crop safety); details: 120 g a.i./ha, seedling stage sealing, 15 days, fresh weight control rate
From the text: as §1, §2, §3

[1] = spray, seedling stage sealing for water-seeding

| Compound | Echinochloa crusgalli activity level (growth control rate) (Echinochloa crusgalli; seedling stage sealing) | Echinochloa phyllopogon activity level (growth control rate) (Echinochloa phyllopogon; seedling stage sealing) | Huaidao (rice cultivar) plant damage level (Huaidao (rice cultivar)) | Echinochloa crusgalli activity level (growth control rate) (Echinochloa crusgalli; [1]) | Echinochloa phyllopogon activity level (growth control rate) (Echinochloa phyllopogon; [1]) |
| --- | --- | --- | --- | --- | --- |
| CN1C[C@H](c2cccc(C(F)(F)F)c2)[C@@H](C(=O)Nc2cnn(C)c2Cl)C1=O [1′] | 9 | 6 (Level 6: growth control rate greater than or equal to 70% and less than 80%) | – | – | – |
| CN1C[C@H](c2cccc(Oc3ccc(F)cn3)c2)[C@@H](C(=O)Nc2cnn(C)c2Cl)C1=O [52′] | 9 | – | 0 | – | – |
| CCn1ncc(NC(=O)[C@H]2C(=O)N(C)C[C@@H]2c2cccc(C(F)(F)F)c2)c1Cl [95′] | 9 | 8 (Level 8: growth control rate greater than or equal to 90% and less than 100%) | – | – | – |
| Cc1ccccc1[C@H]1CN(C)C(=O)[C@@H]1C(=O)Nc1cnn(C)c1Cl [124′] | 6 (Level 6: growth control rate greater than or equal to 70% and less than 80%) | – | – | – | – |
| C=C(C)c1cccc([C@H]2CN(C)C(=O)[C@@H]2C(=O)Nc2cnn(C)c2Cl)c1 [150′] | 6 (Level 6: growth control rate greater than or equal to 70% and less than 80%) | – | 0 | – | – |
| CN1C[C@H](c2cccc(C(F)(F)F)c2)[C@@H](C(=O)Nc2cnn(C)c2N)C1=O [198′] | 5 (Level 5: growth control rate greater than or equal to 50% and less than 70%) | – | – | – | – |
| CO/N=C/c1cccc([C@H]2CN(C)C(=O)[C@@H]2C(=O)Nc2cnn(C)c2Cl)c1 [232′] | 6 (Level 6: growth control rate greater than or equal to 70% and less than 80%) | – | – | – | – |
| CC(C)c1ccc([C@H]2CN(C)C(=O)[C@@H]2C(=O)Nc2cnn(C)c2Cl)cc1 [245′] | – | 5 (Level 5: growth control rate greater than or equal to 50% and less than 70%) | – | – | – |
| COCc1ccc([C@H]2CN(C)C(=O)[C@@H]2C(=O)Nc2cnn(C)c2Cl)cc1 [253′] | 6 (Level 6: growth control rate greater than or equal to 70% and less than 80%) | – | – | – | – |
| Cc1cc(C)cc([C@H]2CN(C)C(=O)[C@@H]2C(=O)Nc2cnn(C(C)(C)C)c2Cl)c1 [267′] | 6 (Level 6: growth control rate greater than or equal to 70% and less than 80%) | – | 0 | – | – |
| CN1C[C@H](c2ccc(C(F)(F)F)c(F)c2Cl)[C@@H](C(=O)Nc2cnn(C)c2Cl)C1=O [329′] | 7 (Level 7: growth control rate greater than or equal to 80% and less than 90%) | 6 (Level 6: growth control rate greater than or equal to 70% and less than 80%) | – | – | – |
| Cc1ccc([C@H]2CN(C)C(=O)[C@@H]2C(=O)Nc2cnn(C)c2Cl)s1 [335′] | 7 (Level 7: growth control rate greater than or equal to 80% and less than 90%) | – | – | – | – |
| CN1C[C@H](c2cccc(Oc3ccccn3)c2)[C@@H](C(=O)Nc2cnn(C)c2Cl)C1=O [360′] | 7 (Level 7: growth control rate greater than or equal to 80% and less than 90%) | – | – | – | – |
| CSc1c(NC(=O)[C@H]2C(=O)N(C)C[C@@H]2c2cccc(C)c2)cnn1C [393′] | 9 | 9 | – | – | – |
| Cc1cccc([C@H]2CN(C)C(=O)[C@@H]2C(=O)Nc2cnn(C(F)F)c2C2CC2)c1 [395′] | 9 | 9 | – | – | – |
| CCc1c(NC(=O)[C@H]2C(=O)N(C)C[C@@H]2c2cccc(C(F)(F)F)c2)cnn1C(F)F [403′] | 9 | 9 | – | – | – |
| CN1C[C@H](c2cccc(C(F)(F)F)c2)[C@@H](C(=O)Nc2cnn(C)c2C(F)(F)F)C1=O [404′] | 9 | 9 | – | – | – |
| CN1C[C@H](c2cccc(OC(F)(F)F)c2)[C@@H](C(=O)Nc2cnn(C(F)F)c2Cl)C1=O [414′] | 9 | 9 | – | – | – |

| Compound | Echinochloa crusgalli activity level (growth control rate) (Echinochloa crusgalli; seedling stage sealing) | Echinochloa phyllopogon activity level (growth control rate) (Echinochloa phyllopogon; seedling stage sealing) | Huaidao (rice cultivar) plant damage level (Huaidao (rice cultivar)) | Echinochloa crusgalli activity level (growth control rate) (Echinochloa crusgalli; [1]) | Echinochloa phyllopogon activity level (growth control rate) (Echinochloa phyllopogon; [1]) |
| --- | --- | --- | --- | --- | --- |
| Cc1ccc([C@H]2CN(C)C(=O)[C@@H]2C(=O)Nc2cnn(C)c2C)cc1 [415′] | 9 | 9 | – | – | – |
| Cc1cc(C)cc([C@H]2CN(C)C(=O)[C@@H]2C(=O)Nc2cnn(C(F)F)c2C2CC2)c1 [429′] | 9 | 9 | – | – | – |
| CSc1c(NC(=O)[C@H]2C(=O)N(C)C[C@@H]2c2cc(C)cc(C)c2)cnn1C [431′] | 9 | 9 | – | – | – |
| Cc1cc(C)cc([C@H]2CN(C)C(=O)[C@@H]2C(=O)Nc2cnn(C)c2C#N)c1 [434′] | 9 | 9 | – | – | – |
| Cc1ccc([C@H]2CN(C)C(=O)[C@@H]2C(=O)Nc2cnn(C(F)F)c2Cl)cc1F [444′] | – | – | – | 9 | 9 |
| Cc1cc(C)cc([C@H]2CN(C)C(=S)[C@@H]2C(=S)Nc2cnn(C)c2Cl)c1 [451′] | – | – | – | 8 (Level 8: growth control rate greater than or equal to 90% and less than 100%) | 7 (Level 7: growth control rate greater than or equal to 80% and less than 90%) |
| CCc1c(NC(=O)[C@H]2C(=O)N(C)C[C@@H]2c2cccc(C)c2)cnn1C(F)F [466′] | – | – | – | 9 | 9 |
| CSc1c(NC(=O)[C@H]2C(=O)N(C)C[C@@H]2c2cccc(C(F)(F)F)c2)cnn1C [479′] | – | – | – | 9 | 9 |
| Cc1cc([C@H]2CN(C)C(=O)[C@@H]2C(=O)Nc2cnn(C(F)F)c2Cl)cc(C)c1C [515′] | – | – | – | 9 | 9 |
| C=C(C)c1ccc(C2CN(C)C(=O)C2C(=O)Nc2cnn(C)c2Cl)cc1 (stereo not drawn) [Compound 252] | 7 (Level 7: growth control rate greater than or equal to 80% and less than 90%) | 9 | – | – | – |
| CN1CC(c2ccc(OC(F)(F)F)cc2)C(C(=O)Nc2cnn(C)c2Cl)C1=O (stereo not drawn) [Compound 254] | 5 (Level 5: growth control rate greater than or equal to 50% and less than 70%) | 5 (Level 5: growth control rate greater than or equal to 50% and less than 70%) | – | – | – |
| CN1CC(c2ccc(-c3cccc(C(F)(F)F)c3)cc2)C(C(=O)Nc2cnn(C)c2Cl)C1=O (stereo not drawn) [Compound 261] | 6 (Level 6: growth control rate greater than or equal to 70% and less than 80%) | 5 (Level 5: growth control rate greater than or equal to 50% and less than 70%) | – | – | – |
| COc1cc(OC)cc(C2CN(C)C(=O)C2C(=O)Nc2cnn(C)c2Cl)c1 (stereo not drawn) [Compound 302] | 6 (Level 6: growth control rate greater than or equal to 70% and less than 80%) | 5 (Level 5: growth control rate greater than or equal to 50% and less than 70%) | – | – | – |
| CSc1c(C(F)(F)F)ccc(C2CN(C)C(=O)C2C(=O)Nc2cnn(C)c2Cl)c1Cl (stereo not drawn) [Compound 330] | 6 (Level 6: growth control rate greater than or equal to 70% and less than 80%) | 5 (Level 5: growth control rate greater than or equal to 50% and less than 70%) | – | – | – |
| CN1CC(c2cc(F)cc(F)c2F)C(C(=O)Nc2cnn(C)c2Cl)C1=O (stereo not drawn) [Compound 332] | 5 (Level 5: growth control rate greater than or equal to 50% and less than 70%) | – | – | – | – |
| CN1CC(c2ccc3occc3c2)C(C(=O)Nc2cnn(C)c2Cl)C1=O (stereo not drawn) [Compound 355] | 5 (Level 5: growth control rate greater than or equal to 50% and less than 70%) | – | – | – | – |
| Cc1ccc(C2CN(C)C(=O)C2C(=O)Nc2cnn(C)c2C(F)(F)F)cc1C (stereo not drawn) [Compound 488] | – | – | – | 9 | 9 |
| CN1CC(c2cc(F)cc(C(F)(F)F)c2)C(C(=O)Nc2cnn(C)c2C(F)(F)F)C1=O (stereo not drawn) [Compound 508] | – | – | – | 9 | 9 |
